Reference: paper PMC5487684, “Safety, Pharmacokinetics, and Antiviral Activity of a Novel HIV Antiviral, ABX464, in Treatment-Naive HIV-Infected Subjects in a Phase 2 Randomized, Controlled Study” (Antimicrobial Agents and Chemotherapy, 2017)

Test system: HIV-infected subjects
Assay: Safety and tolerability (TEAEs, ECG, laboratory) after repeated oral administration, phase 2a study
Type: in vivo, human
Description: Participants were assigned to one of eight groups; each group (with one exception) included eight subjects receiving either ABX464 (n = 6) or the corresponding placebo (n = 2) according to a randomization code. […] In the present study with HIV-infected subjects, the first dose administered was 25 mg, given once or 3 times a day over a 2- to 3-week period. This initial dose was therefore considered safe for assessment of the safety and tolerability of ABX464 after repeated oral administrations in subjects infected by HIV and determination of the potential effect on the HIV viral load.
The final dosing protocol for each of the eight groups was as follows: group 1, 25 mg every 3 days for 2 to 3 weeks under fasted conditions; group 2, 25 mg once a day (q.d.) for 2 to 3 weeks under fasted conditions; group 3, 50 mg once a day for 2 to 3 weeks under fasted conditions; group 4, 50 mg 3 times a day (t.i.d.) for 4 weeks under fed conditions; group 5, 75 mg once a day for 2 weeks under fed conditions; group 6, 100 mg once a day for 2 to 3 weeks under fasted conditions; group 7, 150 mg every 3 days for 2 to 3 weeks under fed conditions; and group 8, 150 mg once a day for 2 weeks under fed conditions. Per the study protocol, the treatment period was defined as 2 weeks. […] The decision to proceed to the next highest dose was determined by the data and safety monitoring board after review of the laboratory safety data, vital signs, ECGs, and adverse event reports from the group receiving the current dose after 2 weeks of treatment.
Subjects were hospitalized from the day prior to the first dose to at least the morning of day 2. They were orally dosed with 25-mg capsules of ABX464 with 240 ml water under fed or fasted conditions. According to the group, subjects were dosed with 1, 2, 3, 4, or 6 capsules to deliver 25 mg, 50 mg, 75 mg, 100 mg, or 150 mg product, respectively, or the same number of placebo capsules.
Safety assessments and laboratory tests were carried out according to the schedules described in Table S4 for groups dosed every day, every 3 days, and 3 times a day. Follow-up visits were scheduled for 7 days after the last dose and subsequently once every week in order to assess the elimination of the main ABX464 metabolite and to assess the viral load. Follow-up visits were terminated when the virus load was within 0.5 log of the baseline value or after 3 follow-up visits, whichever came first. Prior to the statistical analyses, AEs were coded using the Medical Dictionary for Regulatory Activities (MedDRA dictionary; last available version) in order to be tabulated by system organ class (SOC) and preferred term (PT). The AEs were analyzed according to the treatment emergence phase from the first study drug administration on day 1 up to 48 h after the last study drug administration. The number and percentage of subjects with at least one TEAE were tabulated by SOC and PT for each group and dose. The number of occurrences of TEAEs was also analyzed in the same way by SOC and PT for each group and dose, by grade of severity for each group and dose, and by level of causality to the study drug for each group and dose.

[1] = Group 5 (n = 6), 75 mg q.d., fed, Mild
[2] = Group 5 (n = 6), 75 mg q.d., fed, Moderate
[3] = Group 6 (n = 6), 100 mg q.d., fasted, Mild
[4] = Group 6 (n = 6), 100 mg q.d., fasted, Moderate
[5] = Group 7 (n = 6), 150 mg every 3 days, fed, Mild

FC(F)(F)Oc1ccc(Nc2ccc3cccc(Cl)c3n2)cc1 [ABX464]
0 (0.0) No. (%): Subjects experiencing at least one TEAE: Arthralgia [1] | Subjects experiencing at least one TEAE: Back pain [1] | Subjects experiencing at least one TEAE: Flank pain [1] | Subjects experiencing at least one TEAE: Injury, poisoning, and procedural complications [1] | Subjects experiencing at least one TEAE: Musculoskeletal and connective tissue disorders [1] | Subjects experiencing at least one TEAE: Neck pain [1] | Subjects experiencing at least one TEAE: Pain in extremity [1] | Subjects experiencing at least one TEAE: Sciatica, back pain [1] | Subjects experiencing at least one TEAE: Skin abrasion [1] | Subjects experiencing at least one TEAE: Upper abdominal pain [1] | Subjects experiencing at least one TEAE: Abdominal pain [2] | Subjects experiencing at least one TEAE: Arthralgia [2] | Subjects experiencing at least one TEAE: Back pain [2] | Subjects experiencing at least one TEAE: Diarrhea [2] | Subjects experiencing at least one TEAE: Flank pain [2] | Subjects experiencing at least one TEAE: Headache [2] | Subjects experiencing at least one TEAE: Injury, poisoning, and procedural complications [2] | Subjects experiencing at least one TEAE: Musculoskeletal and connective tissue disorders [2] | Subjects experiencing at least one TEAE: Neck pain [2] | Subjects experiencing at least one TEAE: Nervous system disorders [2] | Subjects experiencing at least one TEAE: Pain in extremity [2] | Subjects experiencing at least one TEAE: Sciatica, back pain [2] | Subjects experiencing at least one TEAE: Skin abrasion [2] | Subjects experiencing at least one TEAE: Upper abdominal pain [2] | Subjects experiencing at least one TEAE: Vomiting [2] | Subjects experiencing at least one TEAE: Abdominal pain [3] | Subjects experiencing at least one TEAE: Arthralgia [3] | Subjects experiencing at least one TEAE: Back pain [3] | Subjects experiencing at least one TEAE: Diarrhea [3] | Subjects experiencing at least one TEAE: Flank pain [3] | Subjects experiencing at least one TEAE: Injury, poisoning, and procedural complications [3] | Subjects experiencing at least one TEAE: Musculoskeletal and connective tissue disorders [3] | Subjects experiencing at least one TEAE: Nausea [3] | Subjects experiencing at least one TEAE: Neck pain [3] | Subjects experiencing at least one TEAE: Pain in extremity [3] | Subjects experiencing at least one TEAE: Sciatica, back pain [3] | Subjects experiencing at least one TEAE: Skin abrasion [3] | Subjects experiencing at least one TEAE: Vomiting [3] | Subjects experiencing at least one TEAE: Abdominal pain [4] | Subjects experiencing at least one TEAE: Arthralgia [4] | Subjects experiencing at least one TEAE: Back pain [4] | Subjects experiencing at least one TEAE: Diarrhea [4] | Subjects experiencing at least one TEAE: Flank pain [4] | Subjects experiencing at least one TEAE: Headache [4] | Subjects experiencing at least one TEAE: Injury, poisoning, and procedural complications [4] | Subjects experiencing at least one TEAE: Musculoskeletal and connective tissue disorders [4] | Subjects experiencing at least one TEAE: Nausea [4] | Subjects experiencing at least one TEAE: Neck pain [4] | Subjects experiencing at least one TEAE: Nervous system disorders [4] | Subjects experiencing at least one TEAE: Pain in extremity [4] | Subjects experiencing at least one TEAE: Sciatica, back pain [4] | Subjects experiencing at least one TEAE: Skin abrasion [4] | Subjects experiencing at least one TEAE: Vomiting [4] | Subjects experiencing at least one TEAE: Abdominal pain [5] | Subjects experiencing at least one TEAE: Back pain [5] | Subjects experiencing at least one TEAE: Diarrhea [5]
4 (66.7) No. (%): Subjects experiencing at least one TEAE: Vomiting [1]
6 (100.0) No. (%): Subjects experiencing at least one TEAE: Total [1] | Subjects experiencing at least one TEAE: Total [3]
5 (83.3) No. (%): Subjects experiencing at least one TEAE: Gastrointestinal disorders [1] | Subjects experiencing at least one TEAE: Headache [1] | Subjects experiencing at least one TEAE: Nervous system disorders [1] | Subjects experiencing at least one TEAE: Headache [3] | Subjects experiencing at least one TEAE: Nervous system disorders [3]
3 (50.0) No. (%): Subjects experiencing at least one TEAE: Nausea [1] | Subjects experiencing at least one TEAE: Total [4]
1 (16.7) No. (%): Subjects experiencing at least one TEAE: Diarrhea [1] | Subjects experiencing at least one TEAE: Gastrointestinal disorders [2] | Subjects experiencing at least one TEAE: Nausea [2] | Subjects experiencing at least one TEAE: Total [2] | Subjects experiencing at least one TEAE: Gastrointestinal disorders [4] | Subjects experiencing at least one TEAE: Upper abdominal pain [4] | Subjects experiencing at least one TEAE: Arthralgia [5]
2 (33.3) No. (%): Subjects experiencing at least one TEAE: Gastrointestinal disorders [3] | Subjects experiencing at least one TEAE: Upper abdominal pain [3]
